≈ marks a conversion by molar mass, not a printed value.
How the values were obtained:
P. multocida cells = assay: SEM and TEM morphology of bacterial cells; format: cell-based, Pasteurella multocida; settings: MT 1, 2 or 3 mg/mL, 8, 12 or 16 hours
Description: The effect of melatonin on the morphologies of P. multocida cells were evaluated employing SEM and TEM. 1 mL of fresh Pasteurella multocida (1×10^9 CFU) at the logarithmic growth stage was added into 100 mL of fresh Martin liquid medium containing different concentrations (1, 2 or 3 mg/mL) of MT. MT-free DMSO was used as a solvent control group and ampicillin (100 μg/mL) was used as a positive control group. All cultures were shaken at 220 rpm in a shaker at 37° C. for 8 hours, 12 hours or 16 hours. The bacterial samples were centrifuged at 3000 r/min for 10 minutes, the supernatant was removed, and cells were collected and washed with PBS for 3 times. Then the cells were fixed with a fixation solution of 2.5% fresh glutaraldehyde for 6 hours, and washed with PBS for 3 times, each time for 10 minutes. Subsequently, the SEM samples were dehydrated with 50%, 70%, 80% and 90% ethanol for 15 minutes respectively, and then dehydrated with 100% ethanol for 3 times, each time for 30 minutes. Ethanol was removed by washing with tert-butyl alcohol for three times, each time for 30 minutes. The samples were dried by a freeze dryer and plated with 10 nm of gold film by an ion sputtering device. The samples were examined using a field scanning electron microscope (FESEM, Hitch SU8010).
The TEM samples were fixed with 1%-2% […] for 2-3 hours, and washed with […] 3 times, each time for 10 minutes. The samples were dehydrated with 30%, 50%, 70%, 80% and 90% ethanol for 20 minutes respectively, and then dehydrated with 100% ethanol 3 times, each time for 30 minutes. Ethanol was replaced with acetone three times, each time for 30 minutes. The bacterial samples were placed on a copper grid with a formvar membrane, and negatively stained with phosphotungstic acid (2% v/v, pH=6.7). The surface area of the sample was less than 0.2 mm×0.2 mm, and slice thickness was between 50 and 90 nm (Lycra UC7). The samples were detected by TEM (Hitachi H-7650) at 80 kV, and photographs of the samples were taken by a Gatan832 CCD camera (Gatan). […]

Lactobacillus johnsonii = assay: MIC/MBC bacteriostatic and bactericidal test; format: cell-based
Description: (§1) 1 mL of a fresh suspension of bacteria (1×10^9 CFU) at the logarithmic growth stage was added into 100 mL containing different concentrations (50 mg/mL, 25 mg/mL, 12.5 mg/mL, 6.25 mg/mL, 3.125 mg/mL, 1.5625 mg/mL, 0.78125 mg/mL, 0.390625 mg/mL) of melatonin. A melatonin (MT)-free solution diluted with DMSO was used as a control group. The samples were shaken at 37° C. and a rotation speed of 120 r/min with protection from light for 12 hours, and then subjected to detection of the minimal inhibitory concentration (MIC) of MT on bacteria. Then, 0.1 mL of the aforementioned transparent bacterial solution was pipetted onto a sterilized agar plate of a specific culture medium and coated evenly, incubated in an incubator at 37° C. for 24 hours, and then subjected to detection of the minimum bactericidal concentration (MBC) of MT on pathogens, wherein the minimum concentration of MT at which no bacterium grew was the MBC of MT on pathogens. Each experiment was carried out for 3 times, and each group was set in triplicate.

[1] = system: Salmonella enteritidis (ATCC85090); assay: MIC/MBC bacteriostatic and bactericidal test; format: cell-based; settings: Salmonella enterica
Description: as §1

Klebsiella pneumoniae = assay: MIC/MBC bacteriostatic and bactericidal test; format: cell-based
Description: as §1

Mannheimia haemolytica = assay: MIC/MBC bacteriostatic and bactericidal test; format: cell-based
Description: as §1

Pneumococcus = assay: Growth curve with melatonin and citric acid; format: cell-based, Diplococcus pneumoniae; settings: MT 1-3 mg/mL, FIG. 27
Description: In additional studies, 1 mL of Klebsiella pneumoniae, Pseudomonas aeruginosa, Diplococcus pneumoniae and Streptococcus pneumoniae at the logarithmic growth stage was added into 100 mL of fresh and sterile Martin broth medium containing different concentrations of melatonin and citric acid (CA) (MT-1 mg/mL, MT-1 mg/mL-CA-1 mg/mL, MT-1 mg/mL-CA-2 mg/mL, MT-1 mg/mL-CA-3 mg/mL; MT-2 mg/mL, MT-2 mg/mL-CA-1 mg/mL, MT-2 mg/mL-CA-2 mg/mL, MT-2 mg/mL-CA-3 mg/mL; MT-3 mg/mL, MT-3 mg/mL-CA-1 mg/mL, MT-3 mg/mL-CA-2 mg/mL MT-3 mg/mL-CA-3 mg/mL).

Pasteurella multocida [2] = assay: Prevention of Pasteurella multocida infection by melatonin in mice; format: in vivo, C57BL/6 mice
Description: C57 mice purchased from the Third Military Medical University were randomly divided into four groups (10 mice in each group): a group of Pasteurella multocida+solvent control, a group of Pasteurella multocida+MT (30 mg/kg), a group of Pasteurella multocida+MT (60 mg/kg), and a group of Pasteurella multocida+MT (120 mg/kg). Before Pasteurella multocida infection, MT was injected intraperitoneally to the experimental group (injection once in the morning) for consecutive 7 days (P) or 6 days (P-1), while the control mice received the equal amount of DMSO. Thereafter, mice were infected by intraperitoneal injection of suspension of Pasteurella multocida ([…]). The survival rate of mice within 7 days was monitored and recorded. Blood samples were collected from mice, and the serum was stored at −20° C. for later ELISA test. Lung samples were collected and homogenized aseptically, and then the bacterial load was quantified by serial dilution, plate inoculation and CFU counting.
In order to measure the colonization of mouse lung bacteria before and after melatonin treatment, the lung tissues of mice were collected 24 hours and 32 hours after infection. The tissues were homogenized under aseptic conditions, and the bacterial content was determined by continuous dilution of 10 times in saline. These different dilutions were coated on the Martin broth agar in triplicate and incubated in a constant-temperature incubator at 37° C. for 24 hours to count the bacterial CFU.

Pasteurella multocida [3] = assay: Bacteriostatic activity, bacterial growth curve (OD600); format: cell-based; settings: MT 1, 1.5 and 2 mg/mL (lower than MBC); OD600 every 2 hours; FIG. 1
Description: In order to further verify the bacteriostatic activity of melatonin against Pasteurella multocida, the bacterial growth curve was determined in view of an increase of melatonin concentration. […] Then the bacteria were cultured in a shaker at a constant temperature of 37° C. at 220 rpm, and the bacterial culture was determined for OD600 every 2 hours with an ultraviolet spectrophotometer to detect the effect of melatonin on the bacterial growth curve. Each experiment was carried out for three times, and each group was set in triplicate.

[4] = preventive dose 60 mg/kg or above, intraperitoneal, consecutive 7 days before infection

SMILES: COc1ccc2[nH]cc(CCNC(C)=O)c2c1 [melatonin, N-acetyl-5-methoxytryptamine]
- cell morphology in SEM analysis (P. multocida cells; FIG. 10): many holes passing through the OM, peptidoglycan (PG) layers and CM
- cell morphology in TEM image (P. multocida cells; FIG. 11): obvious cytoplasmic vacuolization
- MIC (Lactobacillus johnsonii; 37° C., 12 hours): 25 mg/mL (≈ 108 mM)
- MBC (Lactobacillus johnsonii; agar plate 37° C., 24 hours): 50 mg/mL (≈ 215 mM)
- MIC ([1]; 37° C., 12 hours): 12.5 mg/mL (≈ 53.8 mM)
- MBC ([1]; agar plate 37° C., 24 hours): 12.5 mg/mL (≈ 53.8 mM)
- MIC (Klebsiella pneumoniae; 37° C., 12 hours): 3.12 mg/mL (≈ 13.5 mM)
- MBC (Klebsiella pneumoniae; agar plate 37° C., 24 hours): 6.25 mg/mL (≈ 26.9 mM)
- MIC (Mannheimia haemolytica; 37° C., 12 hours): 12.5 mg/mL (≈ 53.8 mM)
- MBC (Mannheimia haemolytica; agar plate 37° C., 24 hours): 25 mg/mL (≈ 108 mM)
- antibacterial activity (Pneumococcus): exhibits antibacterial activity
- preventive effect on the bacterial infection (Pasteurella multocida [2]; melatonin removed 24 hours before infection (P-1, 6 days), FIGS. 33 and 34): significant preventive effect
- bacterial count in the lung (Pasteurella multocida [2]; [4]): significantly reduced
- survival rate of mice (Pasteurella multocida [2]; [4]): significantly improved
- bacterial growth (growth curve, OD600) (Pasteurella multocida [3]): significantly inhibits bacterial growth

— patent US20210353595A1, “USE OF MELATONIN IN PREPARATION OF MEDICAMENT FOR INHIBITING AND/OR KILLING BACTERIUM” (priority 2020, published 2021)
